Laboratory results reported in the supplement of paper PMC10307832.

Key:
Assay in all cases: relative viability (nuclei count vs DMSO), 5 days (fraction); higher = more cells survive
A549 = system: A549
Method in brief: (§1)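 Medians of duplicate plates are given as relative viability. That measure is the nuclei count in treated wells divided by the count in vehicle wells. Counts were taken on 4× images of lung cancer cell lines in 1536-well plates, 5 days after pin-tool dosing the day after seeding with one drug alone or a fixed anchor-drug dose plus five library-drug doses (not always all listed) in √10 steps.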

NCI-H2170 = system: NCI-H2170
Method in brief: as §1

Calu-6 = system: Calu-6
Method in brief: as §1

EBC-1 = system: EBC-1
Method in brief: as §1

IA-LM = system: IA-LM
Method in brief: as §1

NCI-H1299 = system: NCI-H1299
Method in brief: as §1

NCI-H727 = system: NCI-H727
Method in brief: as §1

NCI-H520 = system: NCI-H520
Method in brief: as §1

NCI-H1703 = system: NCI-H1703
Method in brief: as §1

NCI-H2023 = system: NCI-H2023
Method in brief: as §1

Molecule CCNC(=O)c1noc(-c2cc(C(C)C)c(O)cc2O)c1-c1ccc(CN2CCOCC2)cc1 [Luminespib] + C[C@@H](Oc1cc(-c2cnn(C3CCNCC3)c2)cnc1N)c1c(Cl)ccc(F)c1Cl [Crizotinib] (partner 1 µM) has a relative viability (A549; first compound 0.002 µM) of 0.861, a relative viability (A549; first compound 0.006325 µM) of 0.593 and a relative viability (A549; first compound 0.02 µM) of 0.51. For the same molecule, the relative viability (A549; first compound 0.06325 µM) was 0.0411, the relative viability (A549; first compound 0.2 µM) was 0.0426 and the relative viability (NCI-H2170; first compound 0.002 µM) was 1.19. The relative viability (NCI-H2170; first compound 0.006325 µM) was 1.23, the relative viability (NCI-H2170; first compound 0.02 µM) was 0.655 and the relative viability (NCI-H2170; first compound 0.06325 µM) was 1.08. It also gave a relative viability (NCI-H2170; first compound 0.2 µM) of 0.355, a relative viability (Calu-6; first compound 0.002 µM) of 0.793 and a relative viability (Calu-6; first compound 0.006325 µM) of 0.88. It also gave a relative viability (Calu-6; first compound 0.02 µM) of 1.01, a relative viability (Calu-6; first compound 0.06325 µM) of 0.109 and a relative viability (Calu-6; first compound 0.2 µM) of 0.097. For the same molecule, the relative viability (EBC-1; first compound 0.002 µM) was 0.196, the relative viability (EBC-1; first compound 0.006325 µM) was 0.195 and the relative viability (EBC-1; first compound 0.02 µM) was 0.179. The relative viability (EBC-1; first compound 0.06325 µM) was 0.173, the relative viability (EBC-1; first compound 0.2 µM) was 0.165 and the relative viability (IA-LM; first compound 0.002 µM) was 0.753. For the same molecule, the relative viability (IA-LM; first compound 0.006325 µM) was 0.848, the relative viability (IA-LM; first compound 0.02 µM) was 1 and the relative viability (IA-LM; first compound 0.06325 µM) was 0.0538. It also gave a relative viability (IA-LM; first compound 0.2 µM) of 0.04, a relative viability (NCI-H1299; first compound 0.002 µM) of 0.953 and a relative viability (NCI-H1299; first compound 0.006325 µM) of 0.953. It also gave a relative viability (NCI-H1299; first compound 0.02 µM) of 1.01, a relative viability (NCI-H1299; first compound 0.06325 µM) of 0.915 and a relative viability (NCI-H1299; first compound 0.2 µM) of 0.229. The relative viability (NCI-H727; first compound 0.002 µM) was 0.757, the relative viability (NCI-H727; first compound 0.006325 µM) was 0.744 and the relative viability (NCI-H727; first compound 0.02 µM) was 0.739. It also gave a relative viability (NCI-H727; first compound 0.06325 µM) of 0.212, a relative viability (NCI-H727; first compound 0.2 µM) of 0.204 and a relative viability (NCI-H520; first compound 0.002 µM) of 0.831. For the same molecule, the relative viability (NCI-H520; first compound 0.006325 µM) was 0.976, the relative viability (NCI-H520; first compound 0.02 µM) was 0.845 and the relative viability (NCI-H520; first compound 0.06325 µM) was 0.0957. It also gave a relative viability (NCI-H520; first compound 0.2 µM) of 0.0995, a relative viability (NCI-H1703; first compound 0.002 µM) of 0.806 and a relative viability (NCI-H1703; first compound 0.006325 µM) of 0.653. For the same molecule, the relative viability (NCI-H1703; first compound 0.02 µM) was 0.367, the relative viability (NCI-H1703; first compound 0.06325 µM) was 0.119 and the relative viability (NCI-H1703; first compound 0.2 µM) was 0.0858. The relative viability (NCI-H2023; first compound 0.002 µM) was 0.772, the relative viability (NCI-H2023; first compound 0.006325 µM) was 0.586 and the relative viability (NCI-H2023; first compound 0.02 µM) was 0.569. For the same molecule, the relative viability (NCI-H2023; first compound 0.06325 µM) was 0.0759 and the relative viability (NCI-H2023; first compound 0.2 µM) was 0.0557.
For Nc1cccc2c1CN(C1CCC(=O)NC1=O)C2=O (centres undefined) [Lenalidomide] + CS(=O)(=O)CCNCc1ccc(-c2ccc3ncnc(Nc4ccc(OCc5cccc(F)c5)c(Cl)c4)c3c2)o1 [Lapatinib] (partner 2 µM), the relative viability (A549; first compound 0.253 µM) was 1.06, the relative viability (A549; first compound 0.8 µM) was 1.09 and the relative viability (A549; first compound 2.53 µM) was 0.972. The relative viability (A549; first compound 8 µM) was 1.02, the relative viability (NCI-H2170; first compound 0.253 µM) was 0.26 and the relative viability (NCI-H2170; first compound 0.8 µM) was 0.293. For the same molecule, the relative viability (NCI-H2170; first compound 2.53 µM) was 0.296, the relative viability (NCI-H2170; first compound 8 µM) was 0.247 and the relative viability (Calu-6; first compound 0.253 µM) was 0.971. The relative viability (Calu-6; first compound 0.8 µM) was 1.09, the relative viability (Calu-6; first compound 2.53 µM) was 1.17 and the relative viability (Calu-6; first compound 8 µM) was 1.13. For the same molecule, the relative viability (EBC-1; first compound 0.253 µM) was 0.211, the relative viability (EBC-1; first compound 0.8 µM) was 0.205 and the relative viability (EBC-1; first compound 2.53 µM) was 0.217. It also gave a relative viability (EBC-1; first compound 8 µM) of 0.235, a relative viability (IA-LM; first compound 0.253 µM) of 0.647 and a relative viability (IA-LM; first compound 0.8 µM) of 0.557. For the same molecule, the relative viability (IA-LM; first compound 2.53 µM) was 0.613, the relative viability (IA-LM; first compound 8 µM) was 0.532 and the relative viability (NCI-H1299; first compound 0.253 µM) was 0.961. It also gave a relative viability (NCI-H1299; first compound 0.8 µM) of 0.873, a relative viability (NCI-H1299; first compound 2.53 µM) of 0.948 and a relative viability (NCI-H1299; first compound 8 µM) of 1.01. The relative viability (NCI-H727; first compound 0.253 µM) was 0.685, the relative viability (NCI-H727; first compound 2.53 µM) was 1 and the relative viability (NCI-H727; first compound 8 µM) was 0.781. The relative viability (NCI-H520; first compound 0.253 µM) was 0.82, the relative viability (NCI-H520; first compound 0.8 µM) was 0.929 and the relative viability (NCI-H520; first compound 2.53 µM) was 1.11. The relative viability (NCI-H520; first compound 8 µM) was 0.637, the relative viability (NCI-H1703; first compound 0.253 µM) was 1.06 and the relative viability (NCI-H1703; first compound 0.8 µM) was 1.78. For the same molecule, the relative viability (NCI-H1703; first compound 2.53 µM) was 1.42, the relative viability (NCI-H1703; first compound 8 µM) was 1.24 and the relative viability (NCI-H2023; first compound 0.253 µM) was 0.74. For the same molecule, the relative viability (NCI-H2023; first compound 0.8 µM) was 0.859, the relative viability (NCI-H2023; first compound 2.53 µM) was 0.838 and the relative viability (NCI-H2023; first compound 8 µM) was 0.568.
